The record followed here is patent US11312727B1, “Macrocyclic flu endonuclease inhibitors” (Janssen BioPharma, Inc., priority 2018, dated 2022).

One data set is described as follows: in vitro. The note with it: human, CC50, uninfected A549 cells, CellTiter-Glo.
Data set [1] has as its system Influenza strain A549 A/WSN/33 (H1N1). Kind of data set: microbe, parasite or virus in culture. It is filed as cell-based. To be noted: Influenza A virus, A549, 20 h, A549 cells, influenza A/WSN/33 (H1N1), 20 hours incubation; read-out: A549_A(H1N1) EC50.

`C[C@H]1/C=C/COc2cc(F)c(F)c3c2[C@@H](c2ccccc2SC3)N2CN1C(=O)c1c(O)c(=O)ccn12` (single isomer, unassigned) [Compound 162B, (9*S,17a*S,*E)-24,25-difluoro-12-hydroxy-9-methyl-2,6,9,17a-tetrahydro-3,4-(epiprop[1]en[1]yl[3]ylidene)-10,17-methanobenzo[6,7]thiepino[4,5-c]pyrido[1,2-f][1]oxa[5,6,9]triazacyclotridecine-11,13-dione]: the CC50 in “in vitro” is over 100 nM. In addition, the EC50 in data set [1] worked out at 0.23 nM.

Consider `O=C1c2c(O)c(=O)ccn2N2CN1C/C=C\COc1ccccc1[C@@H]2c1ccccc1` [Compound 5B, (18S,Z)-12-hydroxy-18-phenyl-6,9-dihydro-18H-10,17-methanobenzo[b]pyrido[1,2-f][1]oxa[5,6,9]triazacyclotridecine-11,13-dione], for which, in the data set “in vitro”, the CC50 is over 2000 nM. Moreover, the EC50 in data set [1] is over 1000 nM.

As to `CC[C@@H]1/C=C/COc2cc(F)ccc2[C@H](c2ccccc2)N2CN1C(=O)c1c(O)c(=O)ccn12` (single isomer, unassigned) [Compound 89BB, (9*R,18*S,E)-9-ethyl-3-fluoro-12-hydroxy-18-phenyl-6,9-dihydro-18H-10,17-methanobenzo[b]pyrido[1,2-f][1]oxa[5,6,9]triazacyclotridecine-11,13-dione], in the data set “in vitro”, the half-maximal cytotoxic concentration (CC50) was over 200 nM. In data set [1], the 50% effective concentration (EC50) was found to be 3 nM.

As for `O=C1c2c(O)c(=O)ccn2N2CN1CC/C=C\COc1cccc3c1[C@H]2c1ccccc1CC3` (single isomer, unassigned) [Compound 28A], in the data set “in vitro”, the cytotoxic concentration (CC50) is over 20000 nM. For the same molecule, the EC50 in data set [1] amounted to 5950 nM.

Regarding `O=C1c2c(O)c(=O)ccn2N2CN1CCCCCc1ccncc1[C@H]2c1ccccc1` (single isomer, unassigned) [Compound 34A, (18*R)-12-hydroxy-18-phenyl-5,6,7,8,9,18-hexahydro-10,17-methanodipyrido[1,2-b:4′,3′-k][1,2,5]triazacyclotridecine-11,13-dione], the CC50 in “in vitro” was over 2000 nM. In addition, in data set [1], the EC50 stood at 59 nM.

With `O=C1c2c(O)c(=O)ccn2N2CN1C/C=C\COc1cccc3c1[C@H]2c1ccccc1SC3` [Compound 46B, (21S,Z)-16-hydroxy-6,10,13,21a-tetrahydro-7,8-(epiprop[1]en[1]yl[3]ylidene)-14,21-methanobenzo[6,7]thiepino[4,5-c]pyrido[1,2-f][1]oxa[5,6,9]triazacyclotridecine-15,17-dione], the CC50 in the data set “in vitro” is over 100 nM. Besides, the concentration for a half-maximal effect (EC50) in data set [1] came to 3 nM.

As to `CC[C@H]1/C=C/COc2ccccc2[C@@H](c2ccccc2)N2CN1C(=O)c1c(O)c(=O)ccn12` [Compound 39BB, (9S,18R,E)-9-ethyl-12-hydroxy-18-phenyl-6,9-dihydro-18H-10,17-methanobenzo[b]pyrido[1,2-f][1]oxa[5,6,9]triazacyclotridecine-11,13-dione], the 50% cytotoxic concentration (CC50) in “in vitro” is over 2000 nM. For the same molecule, the EC50 in data set [1] was found to be 7 nM.

Turning to `Cc1c(F)ccc2c1OC/C=C\CN1CN([C@H]2c2ccccc2)n2ccc(=O)c(O)c2C1=O` (single isomer, unassigned) [Compound 133B, (18*S,Z)-3-fluoro-12-hydroxy-4-methyl-18-phenyl-6,9-dihydro-18H-10,17-methanobenzo[b]pyrido[1,2-f][1]oxa[5,6,9]triazacyclotridecine-11,13-dione], the CC50 in “in vitro” is over 200 nM. The half-maximal effective concentration (EC50) in data set [1] was over 100 nM.

In “in vitro”, `O=C1c2c(O)c(=O)ccn2N2CN1CCC/C=C\c1ccccc1[C@@H]2c1ccccc1` (single isomer, unassigned) [Compound 54B, (16*S,*Z)-4-hydroxy-16-phenyl-7,8,9,16-tetrahydro-6,17-methanobenzo[k]pyrido[1,2-b][1,2,5]triazacyclotridecine-3,5-dione] returned a CC50 of over 2000 nM. Also, the concentration giving a half-maximal response (EC50) in data set [1] was 33 nM.

Consider `O=C1c2c(O)c(=O)ccn2N2CN1C/C=C\COc1cccnc1[C@@H]2c1ccccc1` (single isomer, unassigned) [Compound 27B, (18*S,*Z)-12-hydroxy-18-phenyl-6,9-dihydro-18H-10,17-methanodipyrido[3,2-b:1′,2′-f][1]oxa[5,6,9]triazacyclotridecine-11,13-dione], for which the CC50 in the data set “in vitro” is over 20000 nM. In addition, the EC50 in data set [1] was 45700 nM.

As for `O=C1c2c(O)c(=O)ccn2N2CN1C/C=C\COc1c(ccc(F)c1F)[C@@H]2c1ccccc1C(F)F` (single isomer, unassigned) [Compound 165B, (18*S,*Z)-18-(2-(difluoromethyl)phenyl)-3,4-difluoro-12-hydroxy-6,9-dihydro-18H-10,17-methanobenzo[b]pyrido[1,2-f][1]oxa[5,6,9]triazacyclotridecine-11,13-dione], in the data set “in vitro”, the cytotoxic concentration (CC50) is over 100 nM. In addition, the EC50 in data set [1] was over 50 nM.

`O=C1c2c(O)c(=O)ccn2N2CN1C1(/C=C/COc3c(ccc(F)c3F)[C@H]2c2ccccc2)CCC1` [Compound 146A, (18′R,E)-3′,4′-difluoro-12′-hydroxy-18′-phenyl-6′H,18′H-spiro[cyclobutane-1,9′-[10,17]methanobenzo[b]pyrido[1,2-f][1]oxa[5,6,9]triazacyclotridecine]-11′,13′-dione] gave a half-maximal cytotoxic concentration (CC50) in the data set “in vitro” of over 100 nM. In addition, the half-maximal effective concentration (EC50) in data set [1] is 0.65 nM.

Molecule `CC[C@@H]1/C=C/COc2c(ccc(Cl)c2F)[C@H](c2ccccc2)N2CN1C(=O)c1c(O)c(=O)ccn12` (single isomer, unassigned) [Compound 170AB, (9*R,18*S,E)-3-chloro-9-ethyl-4-fluoro-12-hydroxy-18-phenyl-6,9-dihydro-18H-10,17-methanobenzo[b]pyrido[1,2-f][1]oxa[5,6,9]triazacyclotridecine-11,13-dione] gave a CC50 in the data set “in vitro” of over 100 nM. In addition, in data set [1], the concentration for a half-maximal effect (EC50) is over 50 nM.

In “in vitro”, `O=C1c2c(O)c(=O)ccn2N2CN1C[C@H]1C[C@@H]1COc1cc(F)c(F)c3c1[C@@H]2c1ccccc1SC3` (single isomer, unassigned) [Compound 127AA, (1a*S,11b*S,20a*S)-22,23-difluoro-17-hydroxy-1a,2,6,11b,20,20a-hexahydro-1H-5,4-(epiprop[1]en[1]yl[3]ylidene)-12,19-methanobenzo[6,7]thiepino[4,5-c]cyclopropa[k]pyrido[1,2-f][1]oxa[5,6,9]triazacyclotridecine-16,18-dione] yielded a CC50 of over 200 nM. The EC50 in data set [1] was found to be 1.5 nM.

With `Cc1cccnc1[C@@H]1c2ccc(F)c(F)c2OC/C=C/C2(CCC2)N2CN1n1ccc(=O)c(O)c1C2=O` (single isomer, unassigned) [Compound 171A, (18′*S,*E)-3′,4′-difluoro-12′-hydroxy-18′-(3-methylpyridin-2-yl)-6′H,18′H-spiro[cyclobutane-1,9′-[10,17]methanobenzo[b]pyrido[1,2-f][1]oxa[5,6,9]triazacyclotridecine]-11′,13′-dione], the CC50 in “in vitro” was over 100 nM. Further, in data set [1], the EC50 was 1.3 nM.

In “in vitro”, `CC[C@@H]1/C=C/COc2c(F)cccc2[C@@H](c2ccccc2)N2CN1C(=O)c1c(O)c(=O)ccn12` (single isomer, unassigned) [Compound 85AB, (9*R,18*R,E)-9-ethyl-4-fluoro-12-hydroxy-18-phenyl-6,9-dihydro-18H-10,17-methanobenzo[b]pyrido[1,2-f][1]oxa[5,6,9]triazacyclotridecine-11,13-dione] returned a CC50 of over 200 nM. Further, the EC50 in data set [1] amounted to 2 nM.

The molecule `Cc1ccccc1C1c2ccc(F)c(F)c2OC/C=C\CN2CN1n1ccc(=O)c(O)c1C2=O` (single isomer, unassigned) [Compound 155B, (18*S,*Z)-3,4-difluoro-12-hydroxy-18-(o-tolyl)-6,9-dihydro-18H-10,17-methanobenzo[b]pyrido[1,2-f][1]oxa[5,6,9]triazacyclotridecine-11,13-dione] yielded a 50% cytotoxic concentration (CC50) in “in vitro” of over 100 nM. In addition, the EC50 in data set [1] is over 50 nM.

Turning to `O=C1c2c(O)c(=O)ccn2N2CN1C/C=C\CCc1ccccc1[C@H]2c1ccccc1` (single isomer, unassigned) [Compound 21A, (17*R,*Z)-4-hydroxy-16-phenyl-7,10,11,16-tetrahydro-6,17-methanobenzo[k]pyrido[1,2-b][1,2,5]triazacyclotridecine-3,5-dione], the CC50 in “in vitro” is over 1000 nM. Further, the EC50 in data set [1] was 5 nM.

As to `COC[C@@H]1/C=C/COc2c(ccc(F)c2F)[C@H](c2ccccc2)N2CN1C(=O)c1c(O)c(=O)ccn12` (single isomer, unassigned) [Compound 153AA, (9*S,18*S,*E)-3,4-difluoro-12-hydroxy-9-(methoxymethyl)-18-phenyl-6,9-dihydro-18H-10,17-methanobenzo[b]pyrido[1,2-f][1]oxa[5,6,9]triazacyclotridecine-11,13-dione], in “in vitro”, the CC50 was over 100 nM. In data set [1], the EC50 is over 50 nM.

In turn, `Cc1ccc2c(c1F)OC/C=C\CN1CN([C@H]2c2ccccc2)n2ccc(=O)c(O)c2C1=O` (single isomer, unassigned) [Compound 135B, (18*S,Z)-4-fluoro-12-hydroxy-3-methyl-18-phenyl-6,9-dihydro-18H-10,17-methanobenzo[b]pyrido[1,2-f][1]oxa[5,6,9]triazacyclotridecine-11,13-dione] yielded a CC50 in “in vitro” of over 200 nM. The EC50 in data set [1] was over 100 nM.

For `O=C1c2c(O)c(=O)ccn2N2CN1CCOCCOc1ccccc1[C@@H]2c1ccccc1` (single isomer, unassigned) [Compound 99B, (2*S)-18-hydroxy-2-phenyl-9,12-dioxa-1,15,22-triazatetracyclo[13.7.1.03,8.017,22]tricosa-3,5,7,17,20-pentaene-16,19-dione], the cytotoxic concentration (CC50) in the data set “in vitro” is over 1000 nM. The concentration giving a half-maximal response (EC50) in data set [1] was 167 nM.

In “in vitro”, `O=C1c2c(O)c(=O)ccn2N2CN1CCCCOc1c(F)cccc1[C@H]2c1ccccc1` (single isomer, unassigned) [Compound 114A, (18*R)-4-fluoro-12-hydroxy-18-phenyl-6,7,8,9-tetrahydro-18H-10,17-methanobenzo[b]pyrido[1,2-f][1]oxa[5,6,9]triazacyclotridecine-11,13-dione] gave a CC50 of over 200 nM. In data set [1], the EC50 came out at 7 nM.
